The values below come from patent publication US11576923B2, “Composition for improving skin elasticity comprising novel ginsenoside” (AMOREPACIFIC CORPORATION, priority 2019, dated 2023).

Bounds are passed on as bounds.

Common to all, as to format: cell-based
Data set [1] relates to collagen biosynthesis in normal human dermal fibroblasts (NHDFs). Description: Collagen biosynthesis-promoting effect (procollagen mRNA by Q-PCR, secreted collagen protein by ELISA). As to the method:
Normal human dermal fibroblasts (NHDFs; ATCC) were cultured in Dulbecco's modified Eagle's medium (Sigma) supplemented with 10% fetal bovine serum (FBS; Hyclone) and 1 (w/v) % penicillin/streptomycin (Sigma) at 37° C. in a 5% CO2 incubator. For collagen synthesis, after replacing the medium with serum-free Dulbecco's modified Eagle's medium, the cells were treated with GS #10, which is a novel ginsenoside according to an exemplary embodiment of the present disclosure, and ginsenosides GS #01-GS #06 as comparative examples of the present disclosure, which were isolated from the ginseng seed extract, for 24 hours at a concentration of 10 μg/mL, respectively. Fibroblast growth factor 1 (FGF1) was used as a positive control group for inducing collagen synthesis. After recovering the cells and extracting RNA using a TRIzol™ reagent (Thermo), cDNA was synthesized using a ReverdAid 1st strand cDNA synthesis kit (Thermo). Then, the change in the amount of procollagen mRNA was observed using a gene amplifier (CFX96 thermocycler, Bio-Rad) (FIG. 11), and the amount of the collagen protein secreted to the medium was measured using a collagen ELISA kit (Abcam) (FIG. 12) […]
(In general: An ELISA detects its analyte on a solid surface through an enzyme-linked reagent.)

The subject of data set [2] is matrix metalloproteinase-1 (MMP-1) expression in normal human dermal fibroblasts (NHDFs). The experiment in a line: Collagen degradation-inhibiting effect (TNFα-induced MMP-1 mRNA by Q-PCR, secreted MMP-1 protein by ELISA). The source says:
For skin elasticity to be maintained, the synthesis of collagen should be promoted and its degradation should be inhibited. Because collagen is degraded by matrix metalloproteinase-1 (MMP-1), it was investigated whether the ginseng seed-derived ginsenosides inhibit the expression of the collagen-degrading enzyme. After pretreating normal human dermal fibroblasts (NHDFs; ATCC) with GS #10, which is a novel ginsenoside according to an exemplary embodiment of the present disclosure, and ginsenosides GS #01-GS #06 as comparative examples of the present disclosure, which were isolated from the ginseng seed extract, under a serum-free condition in the same manner as in Test Example 1 for 2 hours at a concentration of 10 μg/mL, respectively, the cells were treated for 24 hours with a substance capable of inducing inflammatory response (TNFα; 10 ng/mL), which can promote the expression of MMP-1. After preparing RNA and cDNA in the same manner as in Test Example 1, the expression of MMP-1 mRNA was investigated by Q-PCR (FIG. 13), and the amount of the secreted MMP-1 protein was analyzed using a human MMP-1 ELISA kit (Abcam) (FIG. 14). […] Through this, it was confirmed that Compound 10 (GS #10), which is a novel ginsenoside of the present disclosure, can effectively improve skin elasticity by alleviating or delaying the decline in skin elasticity and the formation of wrinkles. […]

A further data set has as its system SH-SY5Y cells. The experiment in a line: Cytotoxicity (CCK-8 cell viability). The note with it: 0.1, 1, 5, 10, 20 and 50 μM, FIG. 19. As to the method:
Cell growth in the presence of the novel ginsenoside GS #10 according to an exemplary embodiment of the present disclosure was evaluated using a cell counting kit (CCK-8) in order to exclude the possibility that the ginsenoside may affect the effect of improving skin elasticity or improving wrinkles through cytotoxic activity. The experimental method is as follows.
10 μL of a CCK-8 reagent was added to SH-SY5Y cells (Dojindo, Md., USA) in a 96-well plate and left at 37° C. for 2 hours. Then, absorbance was measured at 450 nm. Cell viability was represented as the percentage (%) of the absolute optical density of each sample relative to an untreated sample. The concentration of the novel ginsenoside GS #10 according to an exemplary embodiment of the present disclosure in the medium in which the cells were cultured was 0.1, 1, 5, 10, 20 and 50 μM, respectively.

With `CC1(C)C(=O)CC[C@@]2(C)C1[C@@H](O[C@H]1OC(CO)[C@H](O)C(O)C1O[C@H]1OC(CO)[C@H](O)C(O)C1O)C[C@]1(C)C2C[C@@H](O)C2C([C@]3(C)CC[C@H](C(C)(C)O)O3)CC[C@]21C` (stereo partly drawn) [Compound 10, (20S,24R)-6-O-β-D-glucopyranosyl(1→2)-β-D-glucopyranoside-dammar-3-one-20,24-epoxy-6a,12b,25-triol], the “increase in the amount of collagen due to promoted collagen biosynthesis” value in data set [1] (NHDFs, 10 μg/mL, 24 hours, serum-free, vs control group (−), FIG. 11 and FIG. 12) is listed as “about 2 times”. Moreover, the “increase of collagen synthesis” value in data set [1] (Test Example 3, same manner as Test Example 1, FIG. 15 and FIG. 16) is given as at least 2 times. For the same compound, the “effect of inhibiting MMP-1 expression as compared to Compounds 1-6” value in data set [2] (NHDFs, 10 μg/mL pretreatment 2 hours, then TNFα 10 ng/mL 24 hours, FIG. 13 and FIG. 14) is 2-3 times higher. For the same compound, the “effect of inhibiting collagen degradation as compared to the three red ginseng marker ginsenosides” value in data set [2] (Test Example 3, same manner as Test Example 2, FIG. 17 and FIG. 18) is “remarkably excellent effect of inhibiting collagen degradation”. Also, the “cytotoxicity (cell viability, CCK-8)” value in the data set with SH-SY5Y cells is “did not exhibit cytotoxicity up to 50 μM”.
